Kinase still bound, per cent of control data for 8 molecules are collected here from the kinase profiling compilation of Christmann-Franck et al. (2016).

Among the targets are WNK1 (human) (UniProt Q9H4A3); RPS6KA3 KD2 (human) (UniProt P51812); ABL1 (human) (UniProt P00519); NEK10 (human) (UniProt Q6ZWH5).
Experiment in all cases: KINOMEscan competition binding
Common to all, as to conditions: compound 10.0 µM

Test [1] has as its system ABL1 (human), P00519 [F317L].

Sequence of ABL1 (human), P00519 [F317L] (P00519 whole entry F317L, looked up): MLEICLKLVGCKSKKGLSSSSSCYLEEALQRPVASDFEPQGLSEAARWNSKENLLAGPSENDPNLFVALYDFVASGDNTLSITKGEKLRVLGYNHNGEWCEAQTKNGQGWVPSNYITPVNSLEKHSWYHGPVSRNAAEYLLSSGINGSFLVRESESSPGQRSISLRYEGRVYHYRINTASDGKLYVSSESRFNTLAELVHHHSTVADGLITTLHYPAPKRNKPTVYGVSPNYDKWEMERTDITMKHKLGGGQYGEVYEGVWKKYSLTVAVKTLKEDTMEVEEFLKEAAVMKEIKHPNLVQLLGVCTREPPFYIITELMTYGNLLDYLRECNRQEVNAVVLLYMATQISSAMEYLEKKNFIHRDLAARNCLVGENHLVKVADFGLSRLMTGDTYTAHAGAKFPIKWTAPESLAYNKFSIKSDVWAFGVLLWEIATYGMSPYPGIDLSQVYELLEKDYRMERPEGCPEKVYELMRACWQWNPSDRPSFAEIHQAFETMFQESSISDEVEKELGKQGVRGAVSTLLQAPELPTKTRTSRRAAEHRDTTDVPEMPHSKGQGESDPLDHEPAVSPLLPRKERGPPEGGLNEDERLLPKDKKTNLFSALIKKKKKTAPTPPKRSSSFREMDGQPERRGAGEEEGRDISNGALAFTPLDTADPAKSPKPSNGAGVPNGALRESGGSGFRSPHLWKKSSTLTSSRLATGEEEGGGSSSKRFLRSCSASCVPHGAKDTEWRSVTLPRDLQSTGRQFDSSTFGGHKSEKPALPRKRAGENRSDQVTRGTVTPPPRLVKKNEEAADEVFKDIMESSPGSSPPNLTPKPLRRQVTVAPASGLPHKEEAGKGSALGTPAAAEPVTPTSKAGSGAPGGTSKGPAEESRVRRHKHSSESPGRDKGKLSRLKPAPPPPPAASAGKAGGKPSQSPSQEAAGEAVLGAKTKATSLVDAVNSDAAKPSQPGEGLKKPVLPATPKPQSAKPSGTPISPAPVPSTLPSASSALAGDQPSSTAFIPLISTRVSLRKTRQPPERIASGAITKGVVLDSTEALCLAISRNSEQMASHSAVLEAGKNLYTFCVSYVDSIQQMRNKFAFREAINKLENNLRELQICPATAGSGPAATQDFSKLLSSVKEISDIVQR
Sequence of WNK1 (human) (Q9H4A3 whole entry, looked up): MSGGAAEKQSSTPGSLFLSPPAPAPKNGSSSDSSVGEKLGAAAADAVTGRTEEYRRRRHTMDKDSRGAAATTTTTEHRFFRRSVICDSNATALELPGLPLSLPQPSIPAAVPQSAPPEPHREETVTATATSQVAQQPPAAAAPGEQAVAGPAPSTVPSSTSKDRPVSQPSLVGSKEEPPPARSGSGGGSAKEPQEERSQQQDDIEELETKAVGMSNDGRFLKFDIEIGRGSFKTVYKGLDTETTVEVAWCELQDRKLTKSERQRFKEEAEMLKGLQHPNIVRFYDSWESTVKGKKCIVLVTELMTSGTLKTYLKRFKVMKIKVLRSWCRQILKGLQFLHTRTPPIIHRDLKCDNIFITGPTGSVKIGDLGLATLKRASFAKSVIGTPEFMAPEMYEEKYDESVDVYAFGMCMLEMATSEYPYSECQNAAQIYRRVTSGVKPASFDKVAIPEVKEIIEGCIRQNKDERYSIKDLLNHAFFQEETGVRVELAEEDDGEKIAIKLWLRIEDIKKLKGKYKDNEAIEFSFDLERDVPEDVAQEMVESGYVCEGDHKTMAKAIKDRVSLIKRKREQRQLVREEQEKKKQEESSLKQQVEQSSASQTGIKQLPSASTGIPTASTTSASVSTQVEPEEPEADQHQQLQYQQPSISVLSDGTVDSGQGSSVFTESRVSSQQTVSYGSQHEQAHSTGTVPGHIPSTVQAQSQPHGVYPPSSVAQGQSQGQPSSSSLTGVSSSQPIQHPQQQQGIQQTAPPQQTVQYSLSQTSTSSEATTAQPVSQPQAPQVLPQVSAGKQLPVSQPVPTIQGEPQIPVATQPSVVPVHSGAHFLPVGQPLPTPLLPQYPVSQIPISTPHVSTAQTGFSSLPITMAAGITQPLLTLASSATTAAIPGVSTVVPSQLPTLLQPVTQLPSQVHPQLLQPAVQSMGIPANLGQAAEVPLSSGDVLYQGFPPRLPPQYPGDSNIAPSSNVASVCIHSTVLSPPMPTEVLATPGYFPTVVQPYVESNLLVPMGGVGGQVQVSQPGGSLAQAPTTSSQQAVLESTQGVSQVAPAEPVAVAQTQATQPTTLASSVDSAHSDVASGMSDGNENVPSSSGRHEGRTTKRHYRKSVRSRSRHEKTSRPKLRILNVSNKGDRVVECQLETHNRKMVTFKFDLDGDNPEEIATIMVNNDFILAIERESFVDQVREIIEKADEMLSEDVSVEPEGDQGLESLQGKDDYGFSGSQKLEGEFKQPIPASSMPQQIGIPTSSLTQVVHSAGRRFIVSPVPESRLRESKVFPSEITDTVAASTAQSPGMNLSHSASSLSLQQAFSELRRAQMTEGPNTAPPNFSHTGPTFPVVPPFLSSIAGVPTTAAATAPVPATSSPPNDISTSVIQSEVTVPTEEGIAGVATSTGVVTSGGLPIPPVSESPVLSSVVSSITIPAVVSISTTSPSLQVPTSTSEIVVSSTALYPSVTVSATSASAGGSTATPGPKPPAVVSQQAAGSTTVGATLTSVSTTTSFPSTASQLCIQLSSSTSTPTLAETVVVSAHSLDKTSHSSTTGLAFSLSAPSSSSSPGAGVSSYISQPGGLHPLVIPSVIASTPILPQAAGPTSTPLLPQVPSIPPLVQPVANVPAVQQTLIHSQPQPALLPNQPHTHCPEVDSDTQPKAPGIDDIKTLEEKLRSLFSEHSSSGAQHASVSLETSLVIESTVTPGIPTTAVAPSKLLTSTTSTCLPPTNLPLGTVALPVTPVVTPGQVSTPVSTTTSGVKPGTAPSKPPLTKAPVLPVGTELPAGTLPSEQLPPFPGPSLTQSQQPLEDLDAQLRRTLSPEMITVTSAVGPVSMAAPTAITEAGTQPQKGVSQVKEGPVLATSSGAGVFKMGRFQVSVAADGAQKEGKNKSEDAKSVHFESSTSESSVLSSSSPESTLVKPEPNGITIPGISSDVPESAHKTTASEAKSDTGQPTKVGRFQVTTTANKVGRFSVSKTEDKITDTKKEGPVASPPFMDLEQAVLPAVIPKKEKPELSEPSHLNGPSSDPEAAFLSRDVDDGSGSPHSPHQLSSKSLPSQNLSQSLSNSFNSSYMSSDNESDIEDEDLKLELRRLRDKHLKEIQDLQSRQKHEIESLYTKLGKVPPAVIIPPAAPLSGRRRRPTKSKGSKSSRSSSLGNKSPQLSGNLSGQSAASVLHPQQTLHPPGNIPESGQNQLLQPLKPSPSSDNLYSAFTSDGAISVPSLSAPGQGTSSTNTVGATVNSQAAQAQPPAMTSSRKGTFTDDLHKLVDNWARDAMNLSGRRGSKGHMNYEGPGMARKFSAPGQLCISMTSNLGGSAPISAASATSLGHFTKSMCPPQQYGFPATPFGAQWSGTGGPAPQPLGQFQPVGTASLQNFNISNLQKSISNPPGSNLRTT
Sequence of RPS6KA3 KD2 (human) (P51812 whole entry, looked up): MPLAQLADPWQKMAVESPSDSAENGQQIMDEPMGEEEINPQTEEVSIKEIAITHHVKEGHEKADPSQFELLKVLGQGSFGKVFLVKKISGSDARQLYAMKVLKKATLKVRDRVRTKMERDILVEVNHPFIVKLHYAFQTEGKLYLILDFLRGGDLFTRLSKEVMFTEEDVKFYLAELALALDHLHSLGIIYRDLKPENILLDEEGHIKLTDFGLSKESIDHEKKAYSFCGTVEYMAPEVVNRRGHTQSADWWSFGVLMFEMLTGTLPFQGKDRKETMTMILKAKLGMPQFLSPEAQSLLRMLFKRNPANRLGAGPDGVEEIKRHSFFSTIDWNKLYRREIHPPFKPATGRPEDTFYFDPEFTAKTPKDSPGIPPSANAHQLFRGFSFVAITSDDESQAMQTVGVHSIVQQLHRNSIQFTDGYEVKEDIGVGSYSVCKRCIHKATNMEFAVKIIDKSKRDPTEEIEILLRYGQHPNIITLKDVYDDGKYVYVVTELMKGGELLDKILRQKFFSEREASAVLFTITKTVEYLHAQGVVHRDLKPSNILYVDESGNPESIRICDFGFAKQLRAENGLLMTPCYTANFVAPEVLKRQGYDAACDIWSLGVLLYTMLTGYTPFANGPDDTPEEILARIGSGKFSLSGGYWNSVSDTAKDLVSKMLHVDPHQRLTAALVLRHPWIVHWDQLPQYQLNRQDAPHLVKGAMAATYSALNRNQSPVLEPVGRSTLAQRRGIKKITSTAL
Sequence of ABL1 (human) (P00519 whole entry, looked up): as the sequence (P00519 whole entry F317L, looked up) above, with L317F counted along it

Turning to `CNC(=O)Nc1ccc(-c2nc(N3CC4CCC(C3)O4)c3cnn(C4CCC5(CC4)OCCO5)c3n2)cc1`, the kinase still bound, per cent of control on WNK1 (human) was found to be 95%; at RPS6KA3 KD2 (human), 100%.
With `Cc1cn(-c2cc(C(=O)Nc3ccc(C)c(NC(=O)c4ccno4)c3)cc(C(F)(F)F)c2)cn1`, the kinase still bound, per cent of control on ABL1 (human) is 8%; in test [1] it was 1.4%.
On the same counts, the results for `COc1cc(C)c(Sc2cnc(NC(=O)c3ccc(CNC(C)C(C)C)cc3)s2)cc1C(=O)N1CCN(C(C)=O)CC1` (configuration not stated) are 100% and 100%.
In the case of `COc1ccc(N(C(=O)Oc2cc(C(=O)Nc3cccc(C(F)(F)F)c3)ccc2C)c2ccnc(Nc3ccc(N4CCN(C)CC4)cc3)n2)c(OC)c1`, the kinase still bound, per cent of control at ABL1 (human) amounted to 2%.
For the molecule `COc1cc2ncnc(Nc3cccc(Cl)c3)c2cc1OC`, the kinase still bound, per cent of control on NEK10 (human) stood at 91%; on WNK1 (human), 71%; on RPS6KA3 KD2 (human) it was 71%.
In the case of `CCOc1cc(N2CCC(O)CC2)ccc1Nc1ncc2c(n1)N(C)c1ccccc1C(=O)N2C`, the kinase still bound, per cent of control (at ABL1 (human); in test [1]) was 100% each time.
With `O=c1[nH]c2ccccc2n1C1CCN(Cc2ccc(-c3nc4cc5[nH]cnc5cc4nc3-c3ccccc3)cc2)CC1`, the values for the kinase still bound, per cent of control on NEK10 (human), at WNK1 (human) and at RPS6KA3 KD2 (human) were 78%, 89% and 100%, respectively.
On to `COc1cc(N2CCC(C(N)=O)CC2)ccc1Nc1nc(N)c(Cl)c(Nc2ccccc2S(=O)(=O)C(C)C)n1`, for which the kinase still bound, per cent of control at ABL1 (human) worked out at 100%; in test [1], 12%.
